In patent publication US6806230B1, “Pyrimidine derivatives and herbicides containing them” (Kumiai Chemical Industry Co., Ltd., priority 1999, dated 2004):

Legend:
Format in all cases: in vivo
barnyard grass (Eo) [1] = test: Test Example 1: herbicidal effects by flooded paddy field treatment; set-up: herbicidal effects, Eo (barnyard grass):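 0-5 growth inhibition grade; 5 = over 90%; 4 = 70-90%; 3 = 50-70%; 2 = 30-50%; 1 = 10-30%; 0 = under 10%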; settings: for Herbicidal effect index, Eo: dose 100 gai/10a, examined on 21st day after treatment, index 0-5 per Table 44; for herbicidal effects, Eo (barnyard grass): dose 100 g active ingredient per 10 ares, examined on the 21st day after treatment, standards of Table 44;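 on Herbicidal effect index, Eo: 0-5 growth inhibition grade; 5 = over 90%; 4 = 70-90%; 3 = 50-70%; 2 = 30-50%; 1 = 10-30%; 0 = under 10%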
Outline: (§1)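 Herbicidal effect is a graded score assigned 21 days after treatment. Application was one day after sowing into flooded (3 cm) puddled paddy soil, with diluted wettable powder dropped onto the water at 100 g active ingredient per 10 ares. Plants were kept in a greenhouse.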

monochoria (Mo) [2] = test: as above; set-up: herbicidal effects, Mo (monochoria):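 0-5 growth inhibition grade; 5 = over 90%; 4 = 70-90%; 3 = 50-70%; 2 = 30-50%; 1 = 10-30%; 0 = under 10%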; settings: for Herbicidal effect index, Mo: dose 100 gai/10a, examined on 21st day after treatment, index 0-5 per Table 44; for herbicidal effects, Mo (monochoria): dose 100 g active ingredient per 10 ares, examined on the 21st day after treatment, standards of Table 44
Outline: as §1

barnyard grass (Ec) [3] = test: Test Example 2: herbicidal effects by upland soil treatment; set-up: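 0-5 growth inhibition grade; 5 = over 90%; 4 = 70-90%; 3 = 50-70%; 2 = 30-50%; 1 = 10-30%; 0 = under 10%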; settings: dose 100 g active ingredient per 10 ares, examined on the 21st day after treatment, standards of Table 44
Outline: (§2)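 Pre-emergence test: barnyard grass and green foxtail sown in upland soil, then soil surface sprayed with wettable-powder formulation at 100 g active ingredient per 10 ares (100 l per 10 ares). Grown in greenhouse; herbicidal effect scored on a rating scale 21 days after treatment.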

green foxtail (Se) = test: as above; settings: dose 100 g active ingredient per 10 ares, examined on the 21st day after treatment, standards of Table 44;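 further: 0-5 growth inhibition grade; 5 = over 90%; 4 = 70-90%; 3 = 50-70%; 2 = 30-50%; 1 = 10-30%; 0 = under 10%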
Outline: as §2

barnyard grass (Ec) [4] = test: Test Example 5: selectivity for a crop plant by soil treatment in upland field; set-up: scale not given here; settings: dose 25 gai/10a, 21st day after treatment, index per Table 44
Method: (§3) In a 80 cm^2 plastic pot, upland soil was filled, and seeds of barnyard grass (Ec), green foxtail (Se), soybean (G1), wheat (Tr) and corn (Ze) were sown and covered with soil. A wettable powder prepared in accordance with Formulation Example 1 was diluted with water and uniformly applied to the soil surface by a small size spray at a rate of 100 l per 10 ares so that the dose of the active ingredient would be 25 g per 10 ares. Thereafter, cultivation was carried out in a green house, and on the 21st day after the treatment, the herbicidal effects were examined in accordance with the standards of Table 44.

corn (Ze) = test: as above; set-up: scale not given here; settings: dose 25 gai/10a, 21st day after treatment, index per Table 44
Method: as §3

soybean (G1) = test: as above; set-up: scale not given here; settings: dose 25 gai/10a, 21st day after treatment, index per Table 44
Method: as §3

wheat (Tr) = test: as above; set-up: scale not given here; settings: dose 25 gai/10a, 21st day after treatment, index per Table 44
Method: as §3

barnyard grass (Eo) [5] = test: Test Example 4: selectivity for a crop plant by flooded paddy field treatment; set-up: scale not given here; settings: for Eo (herbicidal effect index): barnyard grass, dose 25 gai/10a, 21st day after treatment, index per Table 44
Outline: (§4)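 Scores reflect visual herbicidal effect, graded on a standard scale 21 days after water-surface treatment. The product, a wettable powder diluted with water, went on dropwise at 25 g a.i. per 10 ares one day after flooding to 3 cm. Weeds grew from sown seed and rice was transplanted at second-leaf stage.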

monochoria (Mo) [6] = test: as above; set-up: scale not given here; settings: for Mo (herbicidal effect index): monochoria, dose 25 gai/10a, 21st day after treatment, index per Table 44
Outline: as §4

rice (Or) = test: as above; set-up: scale not given here; settings: rice transplanted at second leaf stage; for Or (herbicidal effect index on crop): dose 25 gai/10a, 21st day after treatment, index per Table 44
Outline: as §4

barnyard grass (Ec) [7] = test: Test Example 3: herbicidal effects by foliage treatment in upland field; set-up: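 0-5 growth inhibition grade; 5 = over 90%; 4 = 70-90%; 3 = 50-70%; 2 = 30-50%; 1 = 10-30%; 0 = under 10%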; settings: dose 100 g active ingredient per 10 ares, examined on the 14th day after treatment
Outline: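 Barnyard grass and green foxtail were grown in upland soil for 2 weeks in a greenhouse. A water-diluted wettable powder was sprayed over the foliage at 100 l per 10 ares, giving 100 g active ingredient per 10 ares. Herbicidal effect was scored on day 14 after treatment.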

[8] = dose 25 g active ingredient per 10 ares, examined on the 21st day after treatment
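Wherever Herbicidal effect index, Mo is given: 0-5 growth inhibition grade; 5 = over 90%; 4 = 70-90%; 3 = 50-70%; 2 = 30-50%; 1 = 10-30%; 0 = under 10%.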

Compound	Herbicidal effect index, Eo (barnyard grass (Eo) [1])	Herbicidal effect index, Mo (monochoria (Mo) [2])	herbicidal effects, Ec (barnyard grass) (barnyard grass (Ec) [3])	herbicidal effects, Se (green foxtail) (green foxtail (Se))	Ec (herbicidal effect index) (barnyard grass (Ec) [4])	Ze (herbicidal effect index on crop) (corn (Ze))	Gl (herbicidal effect index on crop) (soybean (G1))	Tr (herbicidal effect index on crop) (wheat (Tr))	Eo (herbicidal effects, index) (barnyard grass (Eo) [5]; [8])	Mo (herbicidal effects, index) (monochoria (Mo) [6]; [8])	Or (effect on crop plant rice, index) (rice (Or); [8])	herbicidal effects, Eo (barnyard grass) (barnyard grass (Eo) [1])	herbicidal effects, Mo (monochoria) (monochoria (Mo) [2])	Ec (herbicidal effects, index) (barnyard grass (Ec) [7])	Eo (herbicidal effect index) (barnyard grass (Eo) [5])	Mo (herbicidal effect index) (monochoria (Mo) [6])	Or (herbicidal effect index on crop) (rice (Or))
CC(C)c1ccc(CC(=O)N(C)C(c2cncnc2C(F)(F)F)C(C)C)cc1 (racemic) [Compound 1-68]	5	5	5	5	4	2	0	2									
CC(C)C(c1cncnc1C(F)(F)F)N(C)C(=O)Cc1cccc(Br)c1 (racemic) [Compound 1-70]	5	5	5	5	5	1	1	4									
CC(C)C(c1cncnc1C(F)(F)F)N(C)C(=O)Cc1ccc(C#N)cc1 (racemic) [Compound 1-75]	5	5	5	5	4	2	0	3									
CC(C)C(c1cncnc1C(F)(F)F)N(C)C(=O)CCc1ccccc1 (racemic) [Compound 1-77]			5	5	5	2	1	3									
CC(C)C(c1cncnc1C(F)(F)F)N(C(=O)Cc1ccccc1)C1CC1 (racemic) [Compound 1-80]	5	5	5	5	5	1	0	5									
CC#Cc1ccc(CC(=O)N(C)C(c2cncnc2C(F)(F)F)C(C)C)cc1 (racemic) [Compound 1-84]	5	5			4	0	0	1	5	5	0						
CSc1ncncc1C(C(C)C)N(C)C(=O)Cc1ccc(F)cc1 (racemic) [Compound 1-152]			5	5								5	5	4	5	5	1
CSc1ncncc1C(C(C)C)N(C)C(=O)Cc1ccc(C)cc1 (racemic) [Compound 1-153]			5	5								5	5	4	5	5	1
C#CCN(C(=O)Cc1ccc(F)cc1)C(c1cncnc1C(F)(F)F)C(C)C (racemic) [Compound 1-172]			5	5								5	5	5	5	5	1
